Converted amounts (≈) assume the structure as drawn.
Legend:
S. pneumoniae ATCC 6301 = experiment: MIC determination (NCCLS broth microdilution); format: cell-based; conditions: 24 hours at 34° C., lowest concentration with >=80% inhibition; for MIC: Streptococcus pneumoniae, ATCC6301
S. faecium CT-26 = experiment: MIC determination (NCCLS broth microdilution); format: cell-based; conditions: 24 hours at 34° C., lowest concentration with >=80% inhibition; for MIC: Enterococcus faecium, CT26
S. faecalis ATCC 29212 = experiment: MIC determination (NCCLS broth microdilution); format: cell-based; conditions: 24 hours at 34° C., lowest concentration with >=80% inhibition; for MIC: Enterococcus faecalis, ATCC29212
[1] = system: S. epidermidis ATCC 12228; experiment: MIC determination (NCCLS broth microdilution); format: cell-based; conditions: 24 hours at 34° C., lowest concentration with >=80% inhibition; for MIC: Staphylococcus epidermidis, ATCC12228
S. aureus ATCC 29213 = experiment: MIC determination (NCCLS broth microdilution); format: cell-based; conditions: 24 hours at 34° C., lowest concentration with >=80% inhibition; for MIC: Staphylococcus aureus, ATCC29213
HBV ayw1 strain = experiment: HepG2 2.15 Antiviral Evaluation Assay; format: cell-based; conditions: Hepatitis B virus; HepG2 2.2.15 cells; read-out: Anti-Hepatitis B Activity IC50
Experimental: (§1) HepG2 2.15 Antiviral Evaluation Assay—HepG2 2.2.15 cells, which produce HBV ayw1 strain, were plated in 96-well collagencoated microtiter plates at a density of 2.5×10^4/well with DMEM medium supplemented with 2% fetal bovine serum. One day following plating of cells, the wells were washed and the medium was replaced with complete medium containing the test compound diluted in the medium in a half-log series.
(§2) The medium was replaced once with the fresh medium containing the freshly diluted compound three days post the initial addition of the lamivudine, a positive control compound. Cell viability was determined using CellTiter 96® Reagent (Promega, Madison, Wis.) according to the manufacturer's protocol, using a Vmax plate reader (Molecular Devices, Sunnyvale, Calif.). The mixture is metabolized by the mitochondrial enzymes of metabolically active cells to a soluble formazan product, allowing the rapid quantitative analysis of cell numbers. The media was removed and replaced with 100 μl of fresh media and 10 μl of Cell Titer 96. […] Percent cell viability of compound treated wells compared to no compound controls was calculated using an in-house computer program which graphs the percent reduction in viral cytopathic effects and the cell numbers at each drug concentration relative to control values.

17D strain YFV virus = experiment: microbe, parasite or virus in culture; format: cell-based, Yellow Fever (YFV); conditions: Yellow fever virus, HeLa, 168 h, read-out: Anti-Yellow Fever Activity IC50
in vitro = conditions: human
[2] = Cell viability (CellTiter 96) in HepG2 2.15 assay; format: cell-based; conditions: human, HepG2 2.2.15 cells (produce HBV ayw1 strain); read-out: Anti-Hepatitis B Activity TC50
Experimental: as §1, §2

[3] = Cytotoxicity in HCV RNA replicon assay; conditions: human, ET cell line (luc-ubi-neo/ET)

Row | Structure (SMILES) | MIC (S. pneumoniae ATCC 6301) [µg/mL] | MIC (S. faecium CT-26) [µg/mL] | MIC (S. faecalis ATCC 29212) [µg/mL] | MIC [1] [µg/mL] | MIC (S. aureus ATCC 29213) [µg/mL] | IC50 (HBV ayw1 strain) [µM] | IC50 (17D strain YFV virus) [µM] | CC50 at 7 day (in vitro) [µM] | CC50 [2] [µM] | CC50 at 72 hr [3] [µM] | MIC S. pneumoniae ATCC 6301 (S. pneumoniae ATCC 6301) [micrograms per ml] | MIC S. faecium CT-26 (S. faecium CT-26) [micrograms per ml] | MIC S. faecalis ATCC 29212 (S. faecalis ATCC 29212) [micrograms per ml] | MIC S. epidermidis ATCC 12228 [1] [micrograms per ml] | MIC S. aureus ATCC 29213 (S. aureus ATCC 29213) [micrograms per ml]
1 | CO/N=C(\C(=O)N[C@@H]1C(=O)N2C(C(=O)O)=C(CSc3nc(=O)c(=O)[nH]n3C)CS[C@H]12)c1csc(N)n1 [Ceftriaxone, reference compound] | 0.125 (≈ 0.225 µM) | 64 (≈ 115 µM) | 64 (≈ 115 µM) | 1 (≈ 1.8 µM) | 2 (≈ 3.61 µM) | – | – | – | – | – | – | – | – | – | –
2 | Cc1onc(-c2ccccc2Cl)c1C(=O)N[C@@H]1C(=O)N2[C@@H]1SC(C)(C)[C@@H]2C(=O)O [Cloxacillin, reference compound] | 0.125 (≈ 0.287 µM) | 64 (≈ 147 µM) | 16 (≈ 36.7 µM) | 0.25 (≈ 0.574 µM) | 0.125 (≈ 0.287 µM) | – | – | – | – | – | – | – | – | – | –
3 | Fc1ccc2c(c1)COB2c1cccc(Cl)c1 [Compound 11, 1-(3-Chlorophenyl)-5-fluoro-1,3-dihydrobenzo[c][1,2]oxaborole] | 8 (≈ 32.5 µM) | 32 (≈ 130 µM) | 32 (≈ 130 µM) | 1 (≈ 4.06 µM) | < 0.125 | 2.47 | 0.65 | 4.14 | 3.2 | 1.29 | – | – | – | – | –
4 | Clc1cccc(B2OCc3ccccc32)c1 [Compound 12, 1-(3-Chlorophenyl)-1,3-dihydrobenzo[c][1,2]oxaborole] | 8 (≈ 35 µM) | 16 (≈ 70 µM) | 16 (≈ 70 µM) | 2 (≈ 8.75 µM) | 0.5 (≈ 2.19 µM) | – | – | – | – | 12.7 | – | – | – | – | –
5 | Fc1cccc(B2OCc3cc(Cl)ccc32)c1 [Compound 13, 5-Chloro-1-(3-Fluorophenyl)-1,3-dihydrobenzo[c][1,2]oxaborole] | 4 (≈ 16.2 µM) | 8 (≈ 32.5 µM) | 16 (≈ 64.9 µM) | 0.25 (≈ 1.01 µM) | < 0.125 | – | 1.39 | 6.22 | – | 0.37 | – | – | – | – | –
6 | N#Cc1cccc(B2OCc3ccccc32)c1 [Compound 14, 3-(Benzo[c][1,2]oxaborol-1(3H)-yl)benzonitrile] | 2 (≈ 9.13 µM) | 16 (≈ 73 µM) | 32 (≈ 146 µM) | 2 (≈ 9.13 µM) | 0.25 (≈ 1.14 µM) | – | 0.44 | 6.53 | – | 1.14 | – | – | – | – | –
7 | Fc1ccc2c(c1)B(c1cccc(Cl)c1)OC2 [Compound 15, 1-(3-Chlorophenyl)-6-fluoro-1,3-dihydrobenzo[c][1,2]oxaborole] | 4 (≈ 16.2 µM) | 8 (≈ 32.5 µM) | 16 (≈ 64.9 µM) | 2 (≈ 8.11 µM) | 0.5 (≈ 2.03 µM) | – | 1.19 | 6.6 | – | 0.54 | – | – | – | – | –
8 | CC1(C)OB(c2cccc(Cl)c2)c2ccccc21 [Compound 16, 1-(3-Chlorophenyl)-1,3-dihydro-3,3-dimethylbenzo[c][1,2]oxaborole] | 8 (≈ 31.2 µM) | 16 (≈ 62.4 µM) | 16 (≈ 62.4 µM) | 2 (≈ 7.8 µM) | 0.5 (≈ 1.95 µM) | – | – | – | – | – | – | – | – | – | –
9 | Clc1ccc(B2OCc3ccccc32)cc1 [Compound 17, 1-(4-Chlorophenyl)-1,3-dihydrobenzo[c][1,2]oxaborole] | 4 (≈ 17.5 µM) | 16 (≈ 70 µM) | 16 (≈ 70 µM) | 2 (≈ 8.75 µM) | 2 (≈ 8.75 µM) | – | 1.56 | 6.42 | – | 0.26 | – | – | – | – | –
10 | N#Cc1ccc(B2OCc3ccccc32)cc1 [Compound 18, 4-(Benzo[c][1,2]oxaborol-1(3H)-yl)benzonitrile] | 4 (≈ 18.3 µM) | 32 (≈ 146 µM) | 32 (≈ 146 µM) | 2 (≈ 9.13 µM) | 2 (≈ 9.13 µM) | – | 0.74 | 6.6 | – | – | – | – | – | – | –
11 | N#Cc1ccc(B2OCc3cc(F)ccc32)cc1 [Compound 19, 4(5-Fluorobenzo[c][1,2]oxaborol-1(3H)-yl)benzonitrile] | 16 (≈ 67.5 µM) | > 64 | > 64 | 16 (≈ 67.5 µM) | 8 (≈ 33.7 µM) | – | – | 17.1 | – | 0.27 | – | – | – | – | –
12 | N#Cc1cccc(B2OCc3cc(F)ccc32)c1 [Compound 20, 3-(5-Fluorobenzo[c][1,2]oxaborol-1(3H)-yl)benzonitrile] | 8 (≈ 33.7 µM) | 64 (≈ 270 µM) | 64 (≈ 270 µM) | 16 (≈ 67.5 µM) | 1 (≈ 4.22 µM) | – | 1.62 | 21 | – | 5.99 | – | – | – | – | –
13 | N#Cc1cccc(B2OCc3ccc(F)cc32)c1 [Compound 21, 3-(6-Fluorobenzo[c][1,2]oxaborol-1(3H)-yl)benzonitrile] | 8 (≈ 33.7 µM) | 64 (≈ 270 µM) | 64 (≈ 270 µM) | 16 (≈ 67.5 µM) | 8 (≈ 33.7 µM) | – | 2.36 | 15.8 | – | 0.69 | – | – | – | – | –
14 | NCc1ccc(B2OCc3cc(F)ccc32)cc1 [Compound 23] | 8 (≈ 33.2 µM) | 16 (≈ 66.4 µM) | 16 (≈ 66.4 µM) | 8 (≈ 33.2 µM) | 2 (≈ 8.3 µM) | – | – | – | – | – | – | – | – | – | –
15 | NCc1cccc(B2OCc3cc(F)ccc32)c1 [Compound 24] | 16 (≈ 66.4 µM) | 32 (≈ 133 µM) | 32 (≈ 133 µM) | 8 (≈ 33.2 µM) | 4 (≈ 16.6 µM) | – | – | – | – | – | – | – | – | – | –
16 | CC[C@H]1OC(=O)[C@H](C)[C@@H](O[C@H]2C[C@@](C)(OC)[C@@H](O)[C@H](C)O2)[C@H](C)[C@@H](O[C@@H]2O[C@H](C)C[C@H](N(C)C)[C@H]2O)[C@](C)(O)C[C@@H](C)C(=O)[C@H](C)[C@@H](O)[C@]1(C)O [Erythromycin, reference compound] | – | – | 2 (≈ 2.73 µM) | 0.5 (≈ 0.681 µM) | 0.5 (≈ 0.681 µM) | – | – | – | – | – | – | – | – | – | –
17 | C[C@@H](O)[C@H]1C(=O)N2C(C(=O)O)=C(SCCN=CN)C[C@H]12 [Imipenem, reference compound] | 0.125 (≈ 0.418 µM) | 64 (≈ 214 µM) | 1 (≈ 3.34 µM) | 0.125 (≈ 0.418 µM) | 0.125 (≈ 0.418 µM) | – | – | – | – | – | – | – | – | – | –
18 | CC1(C)S[C@@H]2[C@H](NC(=O)Cc3ccccc3)C(=O)N2[C@H]1C(=O)O [Pen G, reference compound] | – | – | – | – | – | – | – | – | – | – | 0.125 | 32 | 1 | 16 | 0.5
19 | Nc1ccn([C@@H]2CS[C@H](CO)O2)c(=O)n1 [lamivudine, reference compound] | – | – | – | – | – | 0.0093 | – | – | > 1 | – | – | – | – | – | –

— patent US7968752B2, “Hydrolytically-resistant boron-containing therapeutics and methods of use” (Anacor Pharmaceuticals, Inc., priority 2003, dated 2011)
